Reference: patent US20060040884A1, “Antisense oligonucleotides directed to genes regulated by trapoxin-induced HDAC inhibition” (priority 2001, published 2006)
Strand notation (5' to 3'): a small letter for the sugar, then the base; units joined by * are phosphorothioate-linked, units joined directly phosphodiester-linked; [ ] holds rarer units or linkages, { } end groups; capitals alone tell only the bases. e = 2'-O-(2-methoxyethyl) (MOE); [5mC] = 5-methylcytosine; d = 2'-deoxy (DNA)

Tests used:
RhoB = RhoB expression in H1299 cells transfected with antisense oligonucleotides (Western blot); type: cell-based, human; details: 400 nM oligonucleotide with LIPOFECTIN, harvested 72 h after first transfection
Procedure: (§1) H1299 cells are transfected with HDAC1 antisense oligonucleotides NAS 6887, HDAC1 mismatch oligonucleotide NAS 7618, luciferase antisense oligonucleotide NAS 5596, or mock transfected. The following are the sequences of the modified oligonucleotides:
modified such that “s” stands for phosphorothioate, upper case refers to 2′-H, lower case refers to 2′-O-methoxyethyl and “c” refers to 2′-methoxyethyl 5-methylcytidine. Transfection is performed using LIPOFECTIN (Life Technologies) as a carrier according to the manufacturer's instruction. The transfection mixture is prepared in OPTI-MEM (Life Technologies) containing 6 μl LIPOFECTIN per 400 nM oligonucleotide. Transfection is carried out for 4 h, and is repeated twice on two consecutive days. Cells are harvested 72 h after the first transfection. RNA and proteins are isolated using Trizol reagent (Life Technologies) according to the manufacturer's instruction. Traces of DNA are removed from RNA samples using DNA-free (Ambion, Austin, Tex.) according to the manufacturer's protocol. RNA concentration is measured on CytoFluor Multi-well plate reader (PerSeptive Biosystems, Framingham, Mass.) using RIBO GREEN RNA Quantification kit (Molecular Probes, Eugene, Oreg.). Real Time RT-PCR
To determine the effect of specific HDAC1 blockade on RhoB expression, antisense oligonucleotides against HDAC1 were used. Potent antisense oligonucleotides against HDAC1 as well as oligonucleotides with mismatched nucleotides were synthesized and transfected into H1299 cells as specifically disclosed herein and as described in Examples 6-9. […] RNA and protein were isolated from H1299 cells transfected with the HDAC1 antisense oligonucleotides (NAS 6887), the corresponding mismatch (NAS 7618) and the unrelated luciferase control oligonucleotide (NAS 5596), and were analysed by real time RT-PCR and Western blot for HDAC1 and RhoB expression level. […] In contrast, no effects on RhoB expression were found in cells transfected with the NAS 7618 and NAS 5596 oligonucleotides.

HDAC1 = HDAC1 expression in H1299 cells transfected with antisense oligonucleotides (real time RT-PCR, Western blot); type: cell-based, human
Procedure: as §1
modified such that “s” stands for phosphorothioate, upper case refers to 2′-H, lower case refers to 2′-O-methoxyethyl and “c” refers to 2′-methoxyethyl 5-methylcytidine. Transfection is performed using LIPOFECTIN (Life Technologies) as a carrier according to the manufacturer's instruction. The transfection mixture is prepared in OPTI-MEM (Life Technologies) containing 6 μl LIPOFECTIN per 400 nM oligonucleotide. Transfection is carried out for 4 h, and is repeated twice on two consecutive days. […] RNA concentration is measured on CytoFluor Multi-well plate reader (PerSeptive Biosystems, Framingham, Mass.) using RIBO GREEN RNA Quantification kit (Molecular Probes, Eugene, Oreg.). […]
To determine the effect of specific HDAC1 blockade on RhoB expression, antisense oligonucleotides against HDAC1 were used. […] RNA and protein were isolated from H1299 cells transfected with the HDAC1 antisense oligonucleotides (NAS 6887), the corresponding mismatch (NAS 7618) and the unrelated luciferase control oligonucleotide (NAS 5596), and were analysed by real time RT-PCR and Western blot for HDAC1 and RhoB expression level. […]

With “NAS 6887: HDAC1 antisense oligonucleotide, SEQ ID NO 12: gct gtAs CsTsCs CsGsAs Csat gtt (antisense eGe[5mC]eTeGeTdA*dC*dT*dC*dC*dG*dA*dC*eAeTeGeTeT)” the “RhoB expression (protein level)” value (RhoB) was “significantly induced”, the “Expression of HDAC1 (real time RT-PCR and Western blot)” value (HDAC1; H1299 cells, 400 nM oligonucleotide with LIPOFECTIN, harvested 72 h after first transfection) was “efficiently blocked” and the “Inhibition of HDAC1 mRNA level” value (HDAC1; transfected H1299 cells) was “very potent inhibition”.
With “NAS 7618: HDAC1 mismatch oligonucleotide, SEQ ID NO 13: gct ttAs CsGsCs CsTsAs Csag gtt (antisense GCTTTACGCCTACAGGTT; phosphorothioate modifications, chemistry not fully specified)” the “RhoB expression (protein level)” value (RhoB) was “no effects”.
With “NAS 5596: luciferase antisense control oligonucleotide, SEQ ID NO 14: cct taCs CsTsGs CsTsAs Gsct ggc (antisense CCTTACCTGCTAGCTGGC; phosphorothioate modifications, chemistry not fully specified)” the “RhoB expression (protein level)” value (RhoB) was “no effects”.
